29 compounds from patent US20250026765A1, “SPIROHETEROCYCLE DERIVATIVE HAVING SEROTONIN RECEPTOR BINDING ACTIVITY” (Shionogi & Co., Ltd., priority 2021, published 2025) can be followed below.

Where two headings read alike, the source gives them in different places.

Test [1] deals with human recombinant 5-HT2C receptor (Homo sapiens (Human), UniProt P28335). Nature of the test: 5-HT2C receptor binding inhibition test ([3H]-Mesulergine). Particulars: Jump-In HEK cell membrane, 37° C. 2 hours. The procedure: Test Example 2: 5-HT2C Receptor Binding Inhibition Test
human recombinant 5-HT2C receptor, sequence (P28335 33-458): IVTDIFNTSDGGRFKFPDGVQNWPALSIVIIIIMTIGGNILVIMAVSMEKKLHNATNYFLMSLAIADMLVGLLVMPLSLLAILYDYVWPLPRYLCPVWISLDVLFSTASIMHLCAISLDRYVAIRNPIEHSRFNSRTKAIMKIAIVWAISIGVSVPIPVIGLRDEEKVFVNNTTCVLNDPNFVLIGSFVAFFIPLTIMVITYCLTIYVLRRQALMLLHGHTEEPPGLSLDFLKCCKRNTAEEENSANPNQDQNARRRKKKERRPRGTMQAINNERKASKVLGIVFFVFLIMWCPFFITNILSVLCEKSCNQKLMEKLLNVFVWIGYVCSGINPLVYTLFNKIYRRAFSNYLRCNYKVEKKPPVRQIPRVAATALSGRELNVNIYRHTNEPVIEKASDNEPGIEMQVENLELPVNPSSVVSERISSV
(§1) (Each Experimental Condition)
Cell membrane: 0.5 μg of Jump-In HEK cell membrane (expressing human recombinant 5-HT2C receptor) per well
(§2) Assay buffer: Tris-HCl 50 mmol/L (pH 7.4) containing NaCl 120 mmol/L, MgCl2·6H2O 1 mmol/L, KCl 5 mmol/L, 0.1% BSA and CaCl2 2 mmol/L
Radioactive ligand: [^3H]-Mesulergine with a final concentration of around Kd value calculated by the following method
Non-specific ligand: Serotonin HCl with a final concentration of […]
(§3) The Kd value is calculated when the lot of cell membrane is changed. In advance, 0.5 μL of a 1 mmol/L compound for non-specific binding calculation dissolved in DMSO or DMSO is dispensed into a microplate, and the cell membrane is diluted with an Assay buffer. The radioactive ligand solution is serially diluted and the count is confirmed with a liquid scintillator. Assay buffer containing diluted cell membrane is dispensed into a microplate at 50 μL/well. Then, the radioactive ligand solution is dispensed into a microplate at 50 μL/well, and the plate is sealed. It is allowed to stand at 37° C. for 2 hours. During this period, 50 mmol/L Tris-HCl (pH 7.4) is dispensed into a GF/B UniFilter plate at 50 μL/well and allowed to stand at 4° C. for 1 hour or longer. After that, filtration is performed with Cell harvester (PerkinElmer). The radioactive ligand solution is dispensed into an empty well of the GF/B UniFilter plate at 10 μL/well. After the GF/B UniFilter plate is dried at room temperature, MicroScinti 20 is dispensed into the GF/B UniFilter plate at 50 μL/well to seal the plate. The GF/B UniFilter plate is allowed to stand overnight at room temperature. The radioactivity of [^3H]-Mesulergine bound to the 5-HT2C receptor is measured using Microbeta2 (PerkinElmer) at a measurement time of 1 min/well. The Saturation curve is drawn from the measured value, and the Kd value is calculated from the slope of the Scatchard Plot.
(§4) (Binding Test of the Compound According to the Present Invention)
In advance, 0.5 μL of the compound solution dissolved in DMSO is dispensed into a microplate, and the cell membrane and the hot ligand are diluted with Assay buffer, respectively. Then, the Assay buffer containing the diluted cell membrane is dispensed into a microplate at 50 μL/well. Then, the radioactive ligand solution is dispensed into a microplate at 50 μL/well, and the plate is sealed. Then, it is allowed to stand at 37° C. for 2 hours. During this period, 50 mmol/L Tris-HCl (pH 7.4) is dispensed into a GF/B UniFilter plate at 50 μL/well and allowed to stand at 4° C. for 1 hour or longer. After that, filtration is performed with Cell harvester (PerkinElmer). After the GF/B UniFilter plate is dried at room temperature, MicroScinti 20 is dispensed into the GF/B UniFilter plate at 50 μL/well, and the plate is sealed. The GF/B UniFilter plate is allowed to stand overnight at room temperature. The radioactivity of [^3H]-Mesulergine bound to the 5-HT2C receptor is measured using Microbeta2 (PerkinElmer) at a measurement time of 1 min/well. The non-specific binding is calculated from the radioactivity of […] in the presence of 500 μmol/L Serotonin HCl which is the unlabeled ligand, and the total binding is calculated from the radioactivity of [^3H]-Mesulergine in the absence of the compound according to the present invention (Vehicle). Finally, the Ki value is calculated from the dose-response curve.
(§5) (The binding activity of the compound according to the present invention is calculated from the following binding inhibition rate (%).)
(§6) [formula] • a; mean cpm of non-specific binding • b; average cpm of total binding • c; cpm in the presence of the test compound

Test [2] concerns the target human recombinant 5-HT2A receptor (Homo sapiens (Human), UniProt P28223). The test can be described thus: 5-HT2A receptor binding inhibition test ([3H]-Ketanserin). The settings on record: Jump-In HEK cell membrane, 25° C. 1.5 hours. The method, then:
Test Example 1: 5-HT2A Receptor Binding Inhibition Test
as §1
Cell membrane: 15 μg of Jump-In HEK cell membrane (expressing human recombinant 5-HT2A receptor) per well
as §2
Radioactive ligand: [^3H]-Ketanserin with a final concentration of around Kd value calculated by the following method
Non-specific ligand: Serotonin HCl with a final concentration of 500 μmol/L
as §3, with “at room temperature (25° C.)” for “at 37° C.”, “for 1.5” for “for 2”, “of [^3H]-Ketanserin” for “of [^3H]-Mesulergine”, “the 5-HT2A” for “the 5-HT2C”
as §4
In advance, 0.5 μL of the compound solution dissolved in DMSO is dispensed into a microplate, and the cell membrane and the hot ligand are diluted with Assay buffer, respectively. Then, the Assay buffer containing the diluted cell membrane is dispensed into a microplate at 50 μL/well. Then, the radioactive ligand solution is dispensed into a microplate at 50 μL/well, and the plate is sealed. Then, it is allowed to stand at room temperature (25° C.) for 1.5 hours. During this period, 50 mmol/L Tris-HCl (pH 7.4) is dispensed into a GF/B UniFilter plate at 50 μL/well and allowed to stand at 4° C. for 1 hour or longer. After that, filtration is performed with Cell harvester (PerkinElmer). After the GF/B UniFilter plate is dried at room temperature, MicroScinti 20 is dispensed into the GF/B UniFilter plate at 50 μL/well to seal the plate. The GF/B UniFilter plate is allowed to stand overnight at room temperature. The radioactivity of [^3H]-Ketanserin bound to the 5-HT2A receptor is measured using Microbeta2 (PerkinElmer) at a measurement time of 1 min/well. The non-specific binding is calculated from the radioactivity of [^3H]-Ketanserin in the presence of 500 μmol/L Serotonin HCl which is the unlabeled ligand, and the total binding is calculated from the radioactivity of [^3H]-Ketanserin in the absence of the compound according to the present invention (Vehicle). Finally, the Ki value is calculated from the dose-response curve.
as §5, §6

Where [3] appears, read: read-out: human serotonin 5-HT2C receptor binding activity Ki.
[4] abbreviates: read-out: human serotonin 5-HT2A receptor binding activity Ki.

human recombinant 5-HT2A receptor, sequence (P28223 whole entry): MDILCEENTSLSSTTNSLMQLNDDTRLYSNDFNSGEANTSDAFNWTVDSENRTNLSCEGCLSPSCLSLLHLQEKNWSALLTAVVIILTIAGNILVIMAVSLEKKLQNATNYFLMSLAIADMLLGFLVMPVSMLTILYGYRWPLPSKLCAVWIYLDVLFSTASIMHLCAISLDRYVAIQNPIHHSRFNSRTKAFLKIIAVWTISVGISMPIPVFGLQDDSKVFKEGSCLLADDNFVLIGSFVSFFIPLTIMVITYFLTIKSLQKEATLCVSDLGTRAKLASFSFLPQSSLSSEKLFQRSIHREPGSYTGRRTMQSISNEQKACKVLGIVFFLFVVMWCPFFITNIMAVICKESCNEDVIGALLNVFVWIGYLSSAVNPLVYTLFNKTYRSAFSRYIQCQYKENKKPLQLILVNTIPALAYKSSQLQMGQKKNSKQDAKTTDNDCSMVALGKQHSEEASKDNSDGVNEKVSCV

On to `Cc1nc(CN(Cc2ccc(OCC(C)C)cc2F)C2=NOC3(CCNCC3)N2)co1` [Compound I-131], for which the inhibition constant Ki in test [1] (read-out: h-5-HT2C Ki) and in test [2] (read-out: h-5-HT2A Ki) was under 10 nM in each case.
On to `Cc1nc(CN(Cc2cc3ccccc3s2)C2=NOC3(CCN(C)CC3)N2)co1` [Compound I-123], for which the Ki in test [1] (read-out: h-5-HT2C Ki) and in test [2] (read-out: h-5-HT2A Ki) was under 10 nM in each case.
Regarding `CCCOc1ccc(CN(Cc2coc(C)n2)C2=NOC3(CCN(C)CC3)N2)cc1` [Compound I-028], the Ki in test [1] (read-out: h-5-HT2C Ki) and in test [2] (read-out: h-5-HT2A Ki) was under 10 nM each time.
`CC(C)COc1ccc(CN(Cc2cocn2)C2=NOC3(CCN(C)CC3)N2)cc1` [Compound I-031]: the Ki in test [1] (read-out: h-5-HT2C Ki) and in test [2] (read-out: h-5-HT2A Ki) was 10 to 100 nM throughout.
On to `CN1CCC2(CC1)NC(N(CC(=O)Nc1ccc(Cl)cc1)Cc1ccn(C)n1)=NO2` [Compound I-056], for which the Ki – broadly, a measure of affinity in units of concentration, obtained from inhibition or displacement – in test [2] (read-out: h-5-HT2A Ki) is 100 to 500 nM.
For `CN1CCC2(CC1)NC(N(Cc1cnn(C)n1)Cc1ccc(OCC(F)(F)C(F)(F)F)cc1F)=NO2` [Compound I-103], the Ki in test [1] (read-out: h-5-HT2C Ki) and in test [2] (read-out: h-5-HT2A Ki) was under 10 nM throughout.
As for `Cc1nc(CN(Cc2ccc(OCC(C)C)cc2)C2=NC3(CCN(C)CC3)ON2C)co1` [Compound I-052], the inhibitory constant (Ki) in test [1] (read-out: h-5-HT2C Ki) and in test [2] (read-out: h-5-HT2A Ki) was 100 to 500 nM throughout.
Take `CCCc1ccc(CN(Cc2coc(C)n2)C2=NOC3(CCN(C)CC3)N2)cc1` [Compound I-087]: the Ki is 0.787 nM in test [1] (setting [3]) and 1.11 nM in test [2] (setting [4]).
As to `Cc1nc(CN(Cc2nc3cc(Cl)ccc3o2)C2=NOC3(CCN(C)CC3)N2)co1` [Compound I-089], the inhibition constant (Ki) in test [1] (setting [3]) is 5.46 nM; in test [2] (setting [4]), 1.49 nM.
As to `CCCOc1ccc(CC2=NOC3(CCN(C)CC3)N2Cc2ccc(F)cn2)cc1` [Compound I-024], the inhibition constant Ki is 10 to 100 nM in test [1] (read-out: h-5-HT2C Ki) and under 10 nM in test [2] (read-out: h-5-HT2A Ki).
Regarding `Cc1nc(CN(Cc2ccc(OCC3CC(F)(F)C3)cc2)C2=NOC3(CCN(C)CC3)N2)co1` [Compound I-084], the inhibition constant Ki in test [1] (read-out: h-5-HT2C Ki) and in test [2] (read-out: h-5-HT2A Ki) was under 10 nM in each case.
In the case of `CC(C)COc1ccc(CN(Cc2ccn(C(F)F)n2)C2=NOC3(CCN(C)CC3)N2)cc1` [Compound I-015], the values for the Ki in test [1] (read-out: h-5-HT2C Ki) and in test [2] (read-out: h-5-HT2A Ki) were 10 to 100 nM and under 10 nM, respectively.
The matching figures for `CC(C)COc1ccc(CN(Cc2coc(C(F)F)n2)C2=NOC3(CCN(C)CC3)N2)cc1` [Compound I-050]: under 10 nM and under 10 nM.
For `CC(C)COc1ccc(C[C@H]2C(=O)NC3(CCN(C)CC3)N2Cc2ccc(F)cc2)cc1` [Compound I-002], the Ki in test [1] (setting [3]) is 27.1 nM; in test [2] (setting [4]), 11.1 nM.
Turning to `CN1CCC2(CC1)NC(N(Cc1ccc(OCC(F)(F)C(F)F)cc1)Cc1ccn(C)n1)=NO2` [Compound I-010], the Ki in test [1] (read-out: h-5-HT2C Ki) and in test [2] (read-out: h-5-HT2A Ki) was under 10 nM each time.
With `Cc1nc(CN(Cc2nc3ccccc3s2)C2=NOC3(CCN(C)CC3)N2)co1` [Compound I-098], the Ki in test [1] (read-out: h-5-HT2C Ki) is 10 to 100 nM; in test [2] (read-out: h-5-HT2A Ki), under 10 nM.
For `CC(C)COc1ccc(CC2=NOC3(CCNCC3)N2Cc2ccc(F)cc2O)cc1` [Compound I-003], the Ki in test [1] (setting [3]) stood at 4.11 nM; in test [2] (setting [4]), 19.8 nM.
Turning to `Cc1nc(CN(Cc2ccc(OCC(C)C)cc2)C2=NOC3(CCN(C)CC3)N2)c(C)o1` [Compound I-117], the Ki in test [1] (read-out: h-5-HT2C Ki) and in test [2] (read-out: h-5-HT2A Ki) was 10 to 100 nM in each case.
On to `CCCOc1ccc(CC2=NOC3(CCN(C)CC3)N2Cc2ccn(C)n2)cc1` [Compound I-025], for which the Ki in test [1] (read-out: h-5-HT2C Ki) and in test [2] (read-out: h-5-HT2A Ki) was 10 to 100 nM in each case.
In the case of `Cc1nc(CN(Cc2ccc3c(c2)nnn3C)C2=NOC3(CCN(C)CC3)N2)co1` [Compound I-093], the Ki in test [1] (read-out: h-5-HT2C Ki) and in test [2] (read-out: h-5-HT2A Ki) was 100 to 500 nM in each case.
For the compound `CC(C)COc1ccc(CN(Cc2cnn(C)n2)C2=NOC3(CCN(C)CC3)N2)c(F)c1` [Compound I-106], the Ki in test [1] (read-out: h-5-HT2C Ki) and in test [2] (read-out: h-5-HT2A Ki) was under 10 nM in each case.
With `CC(C)COc1ccc(CN(Cc2ccc(F)cc2)C2=NOC3(CCN(C)CC3)N2)cc1` [Compound I-060], the Ki in test [1] (read-out: h-5-HT2C Ki) is 10 to 100 nM.
Turning to `CC(C)COc1ccc(CN(Cc2ccc(F)cc2)C2=NC3(CCN(C)CC3)CO2)cc1` [Compound I-020], the figures for the Ki in test [1] (read-out: h-5-HT2C Ki) and in test [2] (read-out: h-5-HT2A Ki) were 100 to 500 nM and 10 to 100 nM, respectively.
The like results for `CC(C)COc1ccc(CN(Cc2ccn(C)n2)C2=NOC3(CCNCC3)N2)cc1` [Compound I-036] were, in that order, under 10 nM and under 10 nM.
In the case of `CCCCOc1ccc(CN(Cc2coc(C)n2)C2=NOC3(CCNCC3)N2)cc1` [Compound I-134], the inhibitory constant (Ki) in test [1] (read-out: h-5-HT2C Ki) and in test [2] (read-out: h-5-HT2A Ki) was under 10 nM each time.
Consider `COc1ccc2oc(CN(Cc3coc(C)n3)C3=NOC4(CCN(C)CC4)N3)nc2c1` [Compound I-088], for which the Ki in test [1] (read-out: h-5-HT2C Ki) and in test [2] (read-out: h-5-HT2A Ki) was 10 to 100 nM each time.
As for `Cc1ccc(CN(Cc2ccc(OCC(C)C)cc2)C2=NC(=O)C3(CCN(C)CC3)N2)nc1` [Compound I-062], the inhibition constant Ki in test [1] (read-out: h-5-HT2C Ki) was 10 to 100 nM; in test [2] (read-out: h-5-HT2A Ki) it was under 10 nM.
`COc1ccc(CNC2=NOC3(CCN(C)CC3)N2Cc2ccc(F)cc2)cc1` [Compound I-006]: the Ki in test [2] (read-out: h-5-HT2A Ki) lay within 100 to 500 nM.
Turning to `Cc1ccc(CN(Cc2ccc(OCC(C)C)cc2)C2=NC(=O)C3(CCN(C)CC3)N2)cn1` [Compound I-059], the inhibition constant (Ki) in test [2] (read-out: h-5-HT2A Ki) was in the range of 10 to 100 nM.
